Experimental data as given in patent US20150311441A1, “METAL COMPLEX COMPOUND, AND ORGANIC LIGHT-EMITTING ELEMENT AND DISPLAY DEVICE CONTAINING THE SAME” (CANON KABUSHIKI KAISHA, priority 2014, published 2015).

Test: Stability to water of a deposition film
Settings: for State of the film after 5 min (stability to water): 100 nm deposition film on glass substrate, water dropped on film, state after 5 minutes measured with thickness profiler (Alpha-Step); for Dissolution of the film in water: deposition film in contact with water, summary of the Table 1 test
Protocol: The stability to water of the metal complex compound was examined. A deposition film was formed to a thickness of 100 nm on a glass substrate, and water was dropped on the deposition film. After 5 minutes, the state of the film was measured with a thickness profiler (Alpha-Step). Also, the stability to water of lithium fluoride and cesium fluoride, which are generally used as an electron injection material, were examined for comparison.

SMILES | State of the film after 5 min (stability to water) | Dissolution of the film in water
[Cs+].[F-] [compound 2, cesium fluoride] | Dissolved | dissolved in water immediately
[F-].[Li+] [compound 1, lithium fluoride] | Dissolved | dissolved in water immediately
